Measurements from patent US4528287A, “6-Fluoro-1, 4-dihydro-4-oxo-7-substituted piperazinylquinoline-3-carboxylic acids and the method for preparing the same” (priority 1983, dated 1985).
In brackets after ≈: the same amount, converted by molar mass. Where two headings read alike, the source gives them in different places.

What was measured:
[1] = test system: Escherichia coli K-12 C600; experiment: MIC, twofold agar dilution; format: cell-based; settings: K12C600, Gram -, 10^6 cells/ml, 18 hrs, 37° C., read-out: Minimum inhibitory concentration (MIC)
Protocol: (§1) Minimum inhibitory concentrations (MIC) were determined by the twofold agar dilution method (Chemotherapy, 29(1), 76(1981)). Overnight cultures in Mueller-Hinton broth were suspended by buffered saline gelatine. One loopful of the bacterial suspension (10^6 or 10^8 colony-forming units/ml) was incubated onto the test compound-containing plates. The plates were incubated for 18 hrs. at 37° C. The MIC was the lowest concentration of the drug that inhibited visible growth.

[2] = test system: Pseudomonas aeruginosa IFO3445; experiment: MIC, twofold agar dilution; format: cell-based; settings: Gram -, 10^6 cells/ml, 18 hrs, 37° C., read-out: Minimum inhibitory concentration (MIC)
Protocol: as §1

[3] = test system: Serratia marcescens IAM1184; experiment: MIC, twofold agar dilution; format: cell-based; settings: Gram -, 10^6 cells/ml, 18 hrs, 37° C., read-out: Minimum inhibitory concentration (MIC)
Protocol: as §1

Salmonella typhi 901 = experiment: MIC, twofold agar dilution; format: cell-based; settings: Salmonella enterica, 18 h, read-out: Minimum inhibitory concentration (MIC)
Protocol: as §1

[4] = test system: Staphylococcus aureus Terajima; experiment: MIC, twofold agar dilution; format: cell-based; settings: Gram +, 10^6 cells/ml, 18 hrs, 37° C., read-out: Minimum inhibitory concentration (MIC)
Protocol: as §1

Proteus vulgalis HX-19 = experiment: MIC, twofold agar dilution; format: cell-based; settings: Gram -; 10^6 cells/ml; 18 hrs, 37° C.; read-out: Minimum inhibitory concentration (MIC)
Protocol: as §1

[5] = test system: Salmonella enteritidis G14; experiment: MIC, twofold agar dilution; format: cell-based; settings: Salmonella enterica, Gram -, 10^6 cells/ml, 18 hrs, 37° C., read-out: Minimum inhibitory concentration (MIC)
Protocol: as §1

[6] = test system: Staphylococcus aureus MS-353; experiment: MIC, twofold agar dilution; format: cell-based; settings: MS353, Gram +, 10^6 cells/ml, 18 hrs, 37° C., read-out: Minimum inhibitory concentration (MIC)
Protocol: as §1

[7] = test system: Pseudomonas aeruginosa NCTC10490; experiment: MIC, twofold agar dilution; format: cell-based; settings: Gram -, 10^6 cells/ml, 18 hrs, 37° C., read-out: Minimum inhibitory concentration (MIC)
Protocol: as §1

[8] = test system: Escherichia coli NIHJ-JC-2; experiment: MIC, twofold agar dilution; format: cell-based; settings: NIHJJC2, Gram -, 10^6 cells/ml, 18 hrs, 37° C., read-out: Minimum inhibitory concentration (MIC)
Protocol: as §1

[9] = test system: Bacillus subtilis ATCC6633; experiment: MIC, twofold agar dilution; format: cell-based; settings: Gram +, 10^6 cells/ml, 18 hrs, 37° C., read-out: Minimum inhibitory concentration (MIC)
Protocol: as §1

[10] = test system: Proteus mirabilis IFO3849; experiment: MIC, twofold agar dilution; format: cell-based; settings: Gram -, 10^6 cells/ml, 18 hrs, 37° C., read-out: Minimum inhibitory concentration (MIC)
Protocol: as §1

Proteus vulgalis OX-19 = experiment: MIC, twofold agar dilution; format: cell-based; settings: Gram -; 10^6 cells/ml; 18 hrs, 37° C.; read-out: Minimum inhibitory concentration (MIC)
Protocol: as §1

[11] = test system: Staphylococcus aureus FAD208PJC-1; experiment: MIC, twofold agar dilution; format: cell-based; settings: FAD208PJC1, Gram +, 10^6 cells/ml, 18 hrs, 37° C., read-out: Minimum inhibitory concentration (MIC)
Protocol: as §1

Proteus rettgeri IFO3850 = experiment: MIC, twofold agar dilution; format: cell-based; settings: Providencia rettgeri, Gram -, 10^6 cells/ml, 18 hrs, 37° C., read-out: Minimum inhibitory concentration (MIC)
Protocol: as §1

[12] = test system: Enterobacter aerogenes ATCC13048; experiment: MIC, twofold agar dilution; format: cell-based; settings: Klebsiella aerogenes, Gram -, 10^6 cells/ml, 18 hrs, 37° C., read-out: Minimum inhibitory concentration (MIC)
Protocol: as §1

[13] = test system: Micrococcus luteus ATCC9341; experiment: MIC, twofold agar dilution; format: cell-based; settings: Gram +, 10^6 cells/ml, 18 hrs, 37° C., read-out: Minimum inhibitory concentration (MIC)
Protocol: as §1

[14] = test system: Salmonella typhimurium IID 971; experiment: MIC, twofold agar dilution; format: cell-based; settings: Salmonella enterica; Gram -; 10^6 cells/ml; 18 hrs, 37° C.; read-out: Minimum inhibitory concentration (MIC)
Protocol: as §1

[15] = test system: Streptococcus pyogenes Cook; experiment: MIC, twofold agar dilution; format: cell-based; settings: Gram +, 10^6 cells/ml, 18 hrs, 37° C., read-out: Minimum inhibitory concentration (MIC)
Protocol: as §1

[16] = test system: Klebsiella pneumoniae PCI-602; experiment: MIC, twofold agar dilution; format: cell-based; settings: read-out: Minimum inhibitory concentration (MIC)
Protocol: as §1

Proteus morganii IFO3848 = experiment: MIC, twofold agar dilution; format: cell-based; settings: Morganella morganii, Gram -, 10^6 cells/ml, 18 hrs, 37° C., read-out: Minimum inhibitory concentration (MIC)
Protocol: as §1

[17] = test system: Enterobacter cloaceas 963; experiment: MIC, twofold agar dilution; format: cell-based; settings: Gram -, 10^6 cells/ml, 18 hrs, 37° C., read-out: Minimum inhibitory concentration (MIC)
Protocol: as §1

[18] = test system: Pseudomonas aeruginosa ATCC9027; experiment: MIC, twofold agar dilution; format: cell-based; settings: Gram -, 10^6 cells/ml, 18 hrs, 37° C., read-out: Minimum inhibitory concentration (MIC)
Protocol: as §1

[19] = test system: Salmonella schottmulleri 0006; experiment: MIC, twofold agar dilution; format: cell-based; settings: Gram -, 10^6 cells/ml, 18 hrs, 37° C., read-out: Minimum inhibitory concentration (MIC)
Protocol: as §1

[20] = test system: Pseudomonas aeruginosa PAO7; experiment: MIC, twofold agar dilution; format: cell-based; settings: Gram -, 10^6 cells/ml, 18 hrs, 37° C., read-out: Minimum inhibitory concentration (MIC)
Protocol: as §1

[21] = test system: Salmonella paratyphi 1015; experiment: MIC, twofold agar dilution; format: cell-based; settings: Salmonella enterica, 18 h, read-out: Minimum inhibitory concentration (MIC)
Protocol: as §1

in vivo = settings: mouse, male ddY mice, 10 days
Protocol: Male mice of ddY strain, 4 weeks old, were used with 10 animals at a group. Test compounds suspended in 0.5% carboxymethyl cellulose were administered per os (p.o.) in mice. In the case of intraveneous (i.v.) administration, test compounds were solved in 0.1N-HCl solution and neutralized with 0.1N-NaOH solution.

[22] = Urinary excretion in rats after oral dosing (bioassay with Escherichia coli NIHJ-JC-2); format: in vivo, SD strain); settings: rat, male SD rats, 20 mg/Kg per os, fasted 24 hr; for concentration at 6 h: urine 0-6 hr, read-out: Drug Concentration in Urine 0-6 (hr); for dose excreted at 24 h: urine 0-24 hr, read-out: Rate of Urinary Excretion 0-24 (hr); for concentration at 24 h: urine 6-24 hr, read-out: Drug Concentration in Urine 6-24 (hr)
Protocol: Male rats of SD strain, weighing 180-210 g, were used 8 animals at a group. Test compounds suspended in 0.5% carboxymethyl cellulose were administered per os to 24 hr-fasted rats at dose of 20 mg/Kg. Urine was pooled from 0 to 6 hrs. and 6 to 24 hrs, and urinary excretion was measured by bioassay using Escherichia coli NIHJ-JC-2.
The assay method employed was the cup-plate method using
Escherichia coli NIHJ-JC-2. Urine was appropriately diluted with 1/15M phosphate buffer pH7.0, before assay if necessary. Standard calibration lines were made in 1/15M phosphate buffer pH7.0.

[23] = iv, i.v., read-out: LD50 i.v. (95% Confidence Limit)

Structure (SMILES) | MIC [1] [µg/mL] | MIC [2] [µg/mL] | MIC [3] [µg/mL] | MIC (Salmonella typhi 901) [µg/mL] | MIC [4] [µg/mL] | MIC (Proteus vulgalis HX-19) [µg/mL] | MIC [5] [µg/mL] | MIC [6] [µg/mL] | MIC [7] [µg/mL] | MIC [8] [µg/mL] | MIC [9] [µg/mL] | MIC [10] [µg/mL] | MIC (Proteus vulgalis OX-19) [µg/mL] | MIC [11] [µg/mL] | MIC (Proteus rettgeri IFO3850) [µg/mL] | MIC [12] [µg/mL] | MIC [13] [µg/mL] | MIC [14] [µg/mL] | MIC [15] [µg/mL] | MIC (Proteus morganii IFO3848) [µg/mL] | further results
CCn1cc(C(=O)O)c(=O)c2cc(F)c(N3CCNC(C)C3)cc21 (centres unmarked) [Example 1, 1-Ethyl-6-fluoro-1,4-dihydro-7-(3-methyl-1-piperazinyl)-4-oxoquinoline-3-carboxylic acid] | 0.1 (≈ 0.3 µM) | 0.78 (≈ 2.34 µM) | 0.2 (≈ 0.6 µM) | 0.05 (≈ 0.15 µM) | 0.39 (≈ 1.17 µM) | 0.025 (≈ 0.075 µM) | 0.1 (≈ 0.3 µM) | 0.39 (≈ 1.17 µM) | 0.39 (≈ 1.17 µM) | 0.1 (≈ 0.3 µM) | 0.1 (≈ 0.3 µM) | 0.39 (≈ 1.17 µM) | 0.05 (≈ 0.15 µM) | 0.2 (≈ 0.6 µM) | 0.1 (≈ 0.3 µM) | 0.1 (≈ 0.3 µM) | 25 (≈ 75 µM) | 0.1 (≈ 0.3 µM) | 3.13 (≈ 9.39 µM) | 0.025 (≈ 0.075 µM) | MIC ([16]; PCI602, Gram -, 10^6 cells/ml, 18 hrs, 37° C.): 0.025 µg/mL (≈ 0.075 µM); MIC [17]: 0.1 µg/mL (≈ 0.3 µM); MIC [18]: 0.1 µg/mL (≈ 0.3 µM); MIC [19]: 0.025 µg/mL (≈ 0.075 µM); MIC [20]: 0.78 µg/mL (≈ 2.34 µM); MIC [21]: 0.0125 µg/mL (≈ 0.0375 µM); LD50 at 240 h (in vivo; [23]): 348 mg/kg; LD50 at 240 h (in vivo; po, p.o., read-out: LD50 p.o.): > 4000 mg/kg; concentration at 6 h [22]: 514 µg/mL; dose excreted at 24 h [22]: 30%; concentration at 24 h [22]: 28 µg/mL
CCn1cc(C(=O)O)c(=O)c2cc(F)c(N3CCNC(C)C3)c(F)c21 (centres unmarked) [Example 4, 1-Ethyl-6,8-difluoro-1,4-dihydro-7-(3-methyl-1-piperazinyl)-4-oxoquinoline-3-carboxylic acid] | 0.05 (≈ 0.142 µM) | 0.78 (≈ 2.22 µM) | 0.1 (≈ 0.285 µM) | 0.0125 (≈ 0.0356 µM) | 0.78 (≈ 2.22 µM) | 0.025 (≈ 0.0712 µM) | 0.05 (≈ 0.142 µM) | 0.78 (≈ 2.22 µM) | 0.78 (≈ 2.22 µM) | 0.05 (≈ 0.142 µM) | 0.1 (≈ 0.285 µM) | 0.2 (≈ 0.569 µM) | 0.05 (≈ 0.142 µM) | 0.38 (≈ 1.08 µM) | 0.05 (≈ 0.142 µM) | 0.1 (≈ 0.285 µM) | 6.25 (≈ 17.8 µM) | 0.05 (≈ 0.142 µM) | 3.13 (≈ 8.91 µM) | 0.025 (≈ 0.0712 µM) | MIC ([16]; PCI602, 18 h): 0.0125 µg/mL (≈ 0.0356 µM); MIC [17]: 0.1 µg/mL (≈ 0.285 µM); MIC [18]: 0.05 µg/mL (≈ 0.142 µM); MIC [19]: 0.025 µg/mL (≈ 0.0712 µM); MIC [20]: 1.56 µg/mL (≈ 4.44 µM); MIC [21]: 0.025 µg/mL (≈ 0.0712 µM); LD50 at 240 h (in vivo; [23]): 246 mg/kg; LD50 at 240 h (in vivo; po, p.o., read-out: LD50 p.o.): > 4000 mg/kg; concentration at 6 h [22]: 659 µg/mL; dose excreted at 24 h [22]: 75%; concentration at 24 h [22]: 87 µg/mL
